How the values were obtained:
[1] = tested on: Sm^R E. coli MG1655 or W1655 F+; assay: Eradication of sensitive E. coli colonizing the mouse gut by carbenicillin water; type: in vivo
Description: (§1) Mouse experiments with E. coli engraftment, antibiotic water, and phage treatment. Animal procedures were approved by the University of California, San Francisco (UCSF) Institutional Animal Care and Use Committee (IACUC), and animal experiments performed were in compliance with ethical regulations. Specific pathogen free female BALB/c mice from the vendor Taconic were used for all mouse experiments. Streptomycin water was prepared by dissolving USP grade streptomycin sulfate (VWR 0382) in autoclaved tap water to a final concentration of 5 mg/ml and passing through 0.45 μm filtration units. Mice were provided streptomycin water for 1 day, followed by oral gavage of 0.2 ml containing approximately 10^9 CFU of streptomycin-resistant E. coli. Mice were kept on streptomycin water thereafter to maintain colonization. For selection with β-lactam antibiotics, USP grade ampicillin sodium salt (Teknova A9510) or USP grade carbenicillin disodium salt (Teknova C2110) was also dissolved in the water to a final concentration of 1 mg/ml; carbenicillin was preferred for its increased stability over ampicillin (Bobrowski, M. & Borowski, E. et al., Microbiology, 68, 263-272 (1971)). Drinking water containing streptomycin was prepared fresh weekly; with the addition of a β-lactam antibiotic, it was prepared fresh every 3-4 days. For phage treatment, filtered phage solutions stored at −80° C. were thawed and used directly for oral gavage. Unfiltered phage solutions were precipitated by diluting approximately 5-fold in PBS, adding 0.2 volumes phage precipitation solution (20% PEG-8000, 2.5 M NaCl), incubating for 15 min on ice, pelleting at 15,000-21,000 g for 15 min at 4° C., resuspending in PBS, centrifuging to pellet insoluble matter, and filtering through 0.45 μm. Heat-inactivated phage were prepared by incubating 1 ml aliquots at 95° C. in a water bath for 30 min. Streptomycin-treated mice colonized with Sm^R E. coli were orally gavaged with 0.2 ml of phage and placed on drinking water containing both streptomycin and carbenicillin.
Enumeration and culture of E. coli from mouse feces. […]

[2] = Carbenicillin bioassay of culture supernatants; settings: co-cultures expressing β-lactamase; 4 hours of growth; detection limit approximately 2.5 μg/ml
Description: Carbenicillin bioassay. Cultures were sampled over time, cells were pelleted at 21,000 g for 1 min, and the supernatant was transferred to a new tube and frozen at −20° C. until all timepoints were collected. The supernatants were thawed and assayed using a Kirby-Bauer disk diffusion test. An overnight culture of the indicator organism (Bacillus subtilis 168) was diluted in saline to an OD600 of 0.1. A cotton swab was dipped into this dilution and spread across LB agar, antibiotic sensitivity disks (Fisher Scientific S70150A) were overlaid using tweezers, and 20 μl of the supernatant was applied to the disk. At the same time, carbenicillin standards were prepared from 1 μg/ml to 100 μg/ml and also applied to discs. Plates were incubated overnight at 37° C. and imaged the following morning.

gut microbiota = assay: 16S rRNA gene sequencing of streptomycin-treated mice; type: in vivo; settings: streptomycin water 5 mg/ml
Description: 16S rRNA gene sequencing. Mouse fecal pellets were stored at −80° C. DNA was extracted from single pellets using a ZymoBIOMICS 96 MagBead DNA Kit and 16S rRNA gene sequencing was performed using a dual indexing strategy (Gohl, D. M. et al., Nat. Biotechnol. 34, 942-949 (2016)). Briefly, a 22-cycle primary PCR was performed using KAPA HiFi Hot Start DNA polymerase (KAPA KK2502) and V4 515F/806R Nextera primers. The reaction was diluted in UltraPure DNase/RNase-free water (Life Tech 0977-023) and used as template for a 10-cycle secondary (indexing) PCR using sample-specific dual indexing primers. […] The DNA was gel extracted using a MinElute Gel Extraction Kit (Qiagen 28604), quantified by qPCR using a KAPA Library Quantification Kit for Illumina Platforms (KAPA KK4824), and paired-end sequenced on the Illumina MiSeq platform. Data were processed using a 16S rRNA gene analysis pipeline (https://github.com/jbisanz/AmpliconSeq) based on QIIME2 (Bolyen, E. et al., Nat. Biotechnol. 37, 852-857 (2019)) incorporating DADA2 (Callahan, B. J. et al., Nat. Methods, 13, 581-583 (2016).), and analyzed using R packages qiime2R v0.99.23 (https://github.com/jbisanz/qiime2R), phyloseq v1.33.0 (McMurdie, P. J. & Holmes, S., PLoS One, 8, e61217 (2013)), and phylosmith v1.0.4 (Smith, S. D., Journal of Open Source Software 4, 1442 (2019)). […]

Sm^R MG1655 E. coli = assay: Selection of resistant E. coli subpopulation in mouse gut with β-lactam in drinking water; type: in vivo; settings: mice on water containing streptomycin and ampicillin; gavaged 99.9% Amp^S / 0.1% Amp^R; within 1-2 days
Description: as §1, with “For phage treatment, filtered phage solutions stored at −80° C. were thawed and used directly for oral gavage. Unfiltered phage solutions were precipitated by diluting approximately 5-fold in PBS, adding 0.2 volumes phage precipitation solution (20% PEG-8000, 2.5 M NaCl), incubating for 15 min on ice, pelleting at 15,000-21,000 g for 15 min at 4° C., resuspending in PBS, centrifuging to pellet insoluble matter, and filtering through 0.45 μm. Heat-inactivated phage were prepared by incubating 1 ml aliquots at 95° C. in a water bath for 30 min. Streptomycin-treated mice colonized with Sm^R E. coli were orally gavaged with 0.2 ml of phage and placed on drinking water containing both streptomycin and carbenicillin.” left out

CC1(C)S[C@@H]2[C@H](NC(=O)C(C(=O)O)c3ccccc3)C(=O)N2[C@H]1C(=O)O (stereo partly drawn) [carbenicillin]
E. coli colonization level over the course of treatment ([1]; all mice, below limit of detection): < 10^2 CFU/g | mice with recolonization when selection was lifted ([1]; carbenicillin removed on Day 7): 5/6 | median E. coli colonization level ([1]; first day of carbenicillin in water, decreased from 9.6×10^9): 2.0×10^3 CFU/gram feces | carbenicillin in culture supernatants [2]: not detectable

[H]/N=C(/N)N[C@H]1[C@H](O)[C@@H](O)[C@H](O[C@@H]2O[C@@H](C)[C@](O)(C=O)[C@H]2O[C@@H]2O[C@@H](CO)[C@H](O)[C@@H](O)[C@@H]2NC)[C@@H](N/C(N)=N\[H])[C@@H]1O [streptomycin]
effect on gut microbial community (gut microbiota): altered gut microbial community structure while decreasing diversity and colonization level

CC1(C)S[C@@H]2[C@H](NC(=O)[C@H](N)c3ccccc3)C(=O)N2[C@H]1C(=O)O [ampicillin]
increase in the percent of Amp^R E. coli in feces (Sm^R MG1655 E. coli): 3 orders of magnitude

Reference: patent US20230181659A1, “PHAGE-MEDIATED DELIVERY OF GENES TO GUT MICROBIOME” (priority 2020, published 2023)
